# From article PMC12621200, “Giving an Enzyme Scissors: Serotonin Derivatives as Potent Organocatalytic Switches for DNA Repair Enzyme OGG1” (Journal of Medicinal Chemistry, 2025)
# Target: T1, OGG1 (Homo sapiens, UniProt O15527)
# T1 construct: made in house
# Assay: Biochemical fluorescence (fluorophore-quencher) assay of OGG1 incision rate, 8-oxoA substrate
# Settings: for AC50 / AC50 (CI95%): concentration giving 50% of the incision rate of OGG1 with APE1 (2 nM) control; for AC50: read-out: AC50 (CI95%); for AC50 (μM): biochemical assay of virtual screening hits (NCI samples), Table S1; call rule not given here
# T1 sequence (O15527 whole entry): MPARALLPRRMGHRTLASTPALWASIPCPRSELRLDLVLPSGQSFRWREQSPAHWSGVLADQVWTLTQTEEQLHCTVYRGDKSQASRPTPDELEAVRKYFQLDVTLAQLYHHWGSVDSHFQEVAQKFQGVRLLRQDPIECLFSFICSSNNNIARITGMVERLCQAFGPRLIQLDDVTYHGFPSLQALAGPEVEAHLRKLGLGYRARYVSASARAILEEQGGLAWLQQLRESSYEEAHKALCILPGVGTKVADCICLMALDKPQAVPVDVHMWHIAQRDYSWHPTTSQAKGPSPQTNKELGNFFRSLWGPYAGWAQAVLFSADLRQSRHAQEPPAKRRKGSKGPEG
Compound,AC50 [µM],AC50 (CI95%),"OGG1 activation, SAR result in words",further results
"Cc1ccc2[nH]c(-c3cccnc3)c(CCN)c2c1 [Compound 2, 2-(5-Methyl-2-(pyridin-3-yl)-1H-indol-3-yl)-ethan-1-amine]",,inactive,,
"COc1ccc2[nH]c(-c3cccnc3)c(CCN)c2c1 [Compound 3, 2-(5-Methoxy-2-(pyridin-3-yl)-1H-indol-3-yl)-ethan-1-amine]",,inactive,,
"NCCc1c(-c2cccnc2)[nH]c2ccc(Cl)cc12 [Compound 4, 2-(5-Chloro-2-(pyridin-3-yl)-1H-indol-3-yl)-ethan-1-amine]",,inactive,,
"Cc1cccc2c(CCN)c(-c3cccnc3)[nH]c12 [Compound 5, 2-(7-Methyl-2-(pyridin-3-yl)-1H-indol-3-yl)-ethan-1-amine]",,inactive,,
"NCCc1c(-c2ccccc2)[nH]c2cc(F)ccc12 [Compound 9, 6-Fluoro-2-phenyltryptamine]",,inactive,,
"c1ccc2[nH]c(-c3ccncc3)cc2c1 [Compound 24, (2-Pyridin-4-yl)-1H-indole]",,inactive,not tolerated,
"c1ccc2[nH]c(-c3cncnc3)cc2c1 [Compound 25, 2-(Pyrimidin-5-yl)-1H-indole]",,inactive,not tolerated,
"c1ccc2ncc(-c3cc4ccccc4[nH]3)cc2c1 [Compound 27, 3-(1H-Indol-2-yl)-quinoline]",,inactive,not tolerated,
"NCCc1c(-c2cccnc2)[nH]c2c(O)cccc12 [Compound 32, 3-(2-Aminoethyl)-2-(pyridin-3-yl)-1H-indol-7-ol]",,inactive,,
"NCCc1c(-c2cccnc2)[nH]c2cccc(O)c12 [Compound 33, 3-(2-Aminoethyl)-2-(pyridin-3-yl)-1H-indol-4-ol]",,inactive,,
"NCCc1c(-c2cccnc2)[nH]c2ccc(F)cc12 [Compound 34, 2-(5-Fluoro-2-(pyridin-3-yl)-1H-indol-3-yl)-ethan-1-amine]",6.4,,tolerated,
"NCCc1c(-c2cccnc2)[nH]c2cc(F)ccc12 [Compound 35, 2-(6-Fluoro-2-(pyridin-3-yl)-1H-indol-3-yl)-ethan-1-amine]",5.3,,tolerated,
"NCCc1c(-c2cccnc2)[nH]c2ccc(N)cc12 [Compound 36, 3-(2-Aminoethyl)-2-(pyridin-3-yl)-1H-indol-5-amine]",,inactive,not tolerated,
"NCCc1c(-c2cccnc2)[nH]c2ccc(C(=O)O)cc12 [Compound 37, 3-(2-Aminoethyl)-2-(pyridin-3-yl)-1H-indole-5-carboxylic Acid]",,inactive,not tolerated,
"NCc1c(-c2cccnc2)[nH]c2ccc(O)cc12 [Compound 39, 3-(Aminomethyl)-2-(pyridin-3-yl)-1H-indol-5-ol]",,inactive,not tolerated,
"NCCCc1c(-c2cccnc2)[nH]c2ccc(O)cc12 [Compound 40, 3-(3-Aminopropyl)-2-(pyridin-3-yl)-1H-indol-5-ol]",,inactive,not tolerated,

Compound,AC50 [µM],AC50 (CI95%),"OGG1 activation, SAR result in words",further results
"NCCc1c(-c2ccncc2)[nH]c2ccc(O)cc12 [Compound 43, 3-(2-Aminoethyl)-2-(pyridin-4-yl)-1H-indol-5-ol]",,inactive,lost activity,
"NCCc1c(-c2cncnc2)[nH]c2ccc(O)cc12 [Compound 44, 3-(2-Aminoethyl)-2-(pyrimidin-5-yl)-1H-indol-5-ol]",0.25,,slight increase in activity,
"NCCc1c(-c2cncs2)[nH]c2ccc(O)cc12 [Compound 45, 3-(2-Aminoethyl)-2-(thiazol-5-yl)-1H-indol-5-ol]",0.4,,slight increase in activity,
"Cn1c(-c2cccnc2)c(CCN)c2cc(O)ccc21 [Compound 48, 3-(2-Aminoethyl)-1-methyl-2-(pyridin-3-yl)-1H-indol-5-ol]",,inactive,attenuated activity,
"NCCc1[nH]c2cc(F)c(O)cc2c1-c1cccnc1 [Compound 52, 2-(2-Aminoethyl)-6-fluoro-3-(pyridin-3-yl)-1H-indol-5-ol]",8.5,,some residual activity,
"NCCc1[nH]c2ccc(O)cc2c1-c1cncnc1 [Compound 53, 2-(2-Aminoethyl)-3-(pyrimidin-5-yl)-1H-indol-5-ol]",12,,some residual activity,
O=C(O)c1cccc(NC(C(=O)c2ccccc2)c2ccccc2)c1 (stereo not shown) [NSC 4232],,,,AC50 (μM): inactive
Cn1c(=O)c2[nH]c(C3CCCCC3)nc2n(C)c1=O [NSC 14383],,,,AC50 (μM): inactive
Cc1ccc(NC(C(=O)c2ccccc2)c2ccccc2)cc1 (stereo not shown) [NSC 26933],,,,AC50 (μM): inactive
Cl.NC(=O)C1CCCN(Cc2c[nH]c3ccccc23)C1 (stereo not shown) [NSC 32474],,,,AC50 (μM): inactive
O=C(c1ccccc1)[C@H](Nc1ccc2ccccc2c1)c1ccccc1 [NSC 34924],,,,AC50 (μM): inactive
O=C1OC(c2c[nH]c3ccccc23)c2ccccc21 (stereo not shown) [NSC 42087],,,,AC50 (μM): inactive
CC(N)Cc1c[nH]c2ccc(Cl)cc12.Cl (stereo not shown) [NSC 50457],,,,AC50 (μM): inactive
FC(F)(F)c1nc(Nc2ccccc2)c2[nH]cnc2n1 [NSC 56385],,,,AC50 (μM): inactive
O=c1cc(Nc2ccc(Cl)c(Cl)c2)[nH]c(=O)[nH]1 [NSC 62573],,,,AC50 (μM): inactive
CC(N)Cc1c[nH]c2ccccc12 (stereo not shown) [NSC 97069],,,,AC50 (μM): inactive

# More lines, main results first:
AC50 [µM],AC50 (CI95%),"OGG1 activation, SAR result in words",Compound,further results
4.1,,,"NCCc1c(-c2cccnc2)[nH]c2ccccc12 [Compound 1, 2-(2-(Pyridin-3-yl)-1H-indol-3-yl)-ethan-1-amine]",
,inactive,abolished activity,"NC(Cc1c(-c2cccnc2)[nH]c2ccccc12)C(=O)O (stereo not shown) [Compound 6, 2-Amino-3-(2-(pyridin-3-yl)-1H-indol-3-yl)-propanoic Acid]",
,inactive,complete loss of activity,"NCCc1c(-c2ccccc2)[nH]c2ccccc12 [Compound 7, 2-Phenyltryptamine]",
4,,showed potency,"NCCc1c(-c2ccccc2)[nH]c2ccc(O)cc12 [Compound 8, 5-Hydroxy-2-phenyltryptamine]",
1.7,,,"c1cncc(-c2cc3ccccc3[nH]2)c1 [Compound 10, 2-(Pyridin-3-yl)-1H-indole]",
5.7,,,"Cc1ccc2[nH]c(-c3cccnc3)cc2c1 [Compound 11, 5-Methyl-2-(pyridin-3-yl)-1H-indole]",
1.9,,,"Fc1ccc2[nH]c(-c3cccnc3)cc2c1 [Compound 12, 5-Fluoro-2-(pyridin-3-yl)-1H-indole]",
1,,,"Brc1ccc2[nH]c(-c3cccnc3)cc2c1 [Compound 13, 5-Bromo-2-(pyridin-3-yl)-1H-indole]",
13,,,"COc1ccc2[nH]c(-c3cccnc3)cc2c1 [Compound 14, 5-Methoxy-2-(pyridin-3-yl)-1H-indole]",
6,,,"Oc1ccc2[nH]c(-c3cccnc3)cc2c1 [Compound 15, 2-(Pyridin-3-yl)-1H-indol-5-ol]",
1.4,,,"Fc1cncc(-c2cc3ccccc3[nH]2)c1 [Compound 16, 2-(5-Fluoropyridin-3-yl)-1H-indole]",
,inactive,,"Fc1ccc(-c2cc3ccccc3[nH]2)cn1 [Compound 17, 2-(6-Fluoropyridin-3-yl)-1H-indole]",
> 100,,,Nc1cncc(-c2cc3ccccc3[nH]2)c1 [Compound 18],
9.3,,,"Nc1ccc(-c2cc3ccccc3[nH]2)cn1 [Compound 19, 5-(1H-Indol-2-yl)-pyridin-2-amine]",
2.8,,,"Oc1cncc(-c2cc3ccccc3[nH]2)c1 [Compound 20, 5-(1H-Indol-2-yl)-pyridin-3-ol]",
,inactive,,"Oc1ccc(-c2cc3ccccc3[nH]2)cn1 [Compound 21, 5-(1H-Indol-2-yl)-pyridin-2-ol]",
,inactive,,"Clc1ccc(-c2cc3ccccc3[nH]2)cn1 [Compound 22, 2-(6-Chloropyridin-3-yl)-1H-indole]",
14,,,"Cc1ccc(-c2cc3ccccc3[nH]2)cn1 [Compound 23, 2-(6-Methylpyridin-3-yl)-1H-indole]",
1.4,,,"c1ccc2[nH]c(-c3cnc4[nH]ccc4c3)cc2c1 [Compound 26, 5-(1H-Indol-2-yl)-1H-pyrrolo[2,3-b]-pyridine]",
4.1,,,"c1cncc(-c2cc3ccccc3o2)c1 [Compound 28, 3-(Benzofuran-2-yl)-pyridine]",
,inactive,,"NCCc1c(-c2cccnc2)[nH]c2cc(O)ccc12 [Compound 31, 3-(2-Aminoethyl)-2-(pyridin-3-yl)-1H-indol-6-ol]",
,inactive,lost activity,"NCCc1c(-c2ccccn2)[nH]c2ccc(O)cc12 [Compound 42, 3-(2-Aminoethyl)-2-(pyridin-2-yl)-1H-indol-5-ol]",
0.29,,,"CNCCc1c(-c2cccnc2)[nH]c2ccc(O)cc12 [Compound 46, 3-(2-(Methylamino)-ethyl)-2-(pyridin-3-yl)-1H-indol-5-ol]",
8.7,,,"OCCc1c(-c2cccnc2)[nH]c2ccc(O)cc12 [Compound 47, 3-(2-Hydroxyethyl)-2-(pyridin-3-yl)-1H-indol-5-ol]",decrease of activity (ethanol derivative versus amine 30): ~10 fold
,inactive,,"NCCc1cncc(-c2cc3cc(O)ccc3[nH]2)c1 [Compound 49, 2-(5-(2-Aminoethyl)-pyridin-3-yl)-1H-indol-5-ol]",
28,,,"NCCc1[nH]c2ccccc2c1-c1cccnc1 [Compound 50, 2-(3-(Pyridin-3-yl)-1H-indol-2-yl)-ethan-1-amine]",
,inactive,,"NCCc1[nH]c2ccc(O)cc2c1-c1cccnc1 [Compound 51, 2-(2-Aminoethyl)-3-(pyridin-3-yl)-1H-indol-5-ol]",
